Consider 16 molecules from patent US20260226084A1, “DUAL RAF AND TUBULIN INHIBITORS AND METHODS OF USE THEREOF” (Deciphera Pharmaceuticals, LLC, priority 2023, published 2026).

The test system of assay [1] is HPAF-II cells. In words: HPAF-II Cell Proliferation Assay. Type of assay: cell-based. The settings on record: HPAF-II cells, Table 2, read-out: Inhibition of cell proliferation in HPAF-II (IC50 class). As to the method: (§1) HPAF-II cells (catalog #CRL-1997) are obtained from the American Type Culture Collect (ATCC, Manassas, VA). Briefly, cells are grown in Minimum Essential Media supplemented with 10% characterized fetal bovine serum (Invitrogen, Carlsbad, CA) and 1% Penicillin/Streptomycin/L-Glutamine at 37° C., 5% CO2, and 95% humidity. Cells are expanded until reaching 70-95% confluency at which point they are sub-cultured or harvested for assay use. A serial dilution of test compound is dispensed into a 384-well black clear bottom plate in triplicate. 750 cells are added per well in 50 μL complete growth medium in the 384-well plate. Plates are incubated for 115 to 120 hours at 37° C., 5% CO2, and 95% humidity. At the end of the incubation, 40 μL of a 440 μM solution of resazurin (Sigma, St. Louis, MO) in PBS is added to each well of the plate and plates are incubated for an additional 18 to 24 hours at 37° C., 5% CO2, and 95% humidity. Plates are read on a Synergy2 or equivalent reader (Biotek, Winooski, VT) using an excitation of 540 nm and an emission of 600 nm. Data is analyzed using Prism software (Graphpad, San Diego, CA) to calculate IC50 values.

The test system of assay [2] is MiaPaca-2 cells. In words: MiaPaca-2 Cell Proliferation Assay. Type of assay: cell-based. The settings on record: Table 2, read-out: Inhibition of cell proliferation in MiaPaca-2 (IC50 class). As to the method: Miapaca-2 cells (catalog #CRL-1420) are obtained from the American Type Culture Collect (ATTC, Manassas, VA). Briefly, cells were grown in DMVEM supplemented with 10 characterized fetal bovine serum (Invitrogen, Carlsbad, CA), 2.5% New Zealand sourced horse serum and 1 Penicillin/Streptomycin/L-Glutamine at 37° C., 5 CO2, and 95% humidity. Cells are expanded until reaching 70-95% confluency at which point they are sub-cultured or harvested for assay use. A serial dilution of test compound is dispensed into a 96-well black clear bottom plate in triplicate. Three thousand cells are added per well in 200 μL complete growth medium in the 96-well plate. Plates are incubated for 67 to 72 h at 37° C., 5% CO2, and 95% humidity. At the end of the incubation, 40 μL of a 440 μM solution of resazurin (Sigma, St. Louis, MO) in PBS is added to each well of the plate and plates are incubated for an additional 5 to 6 h at 37° C., 5% CO2, and 95% humidity. Plates are read on a Synergy2 or equivalent reader (Biotek, Winooski VT) using an excitation of 540 nm and an emission of 600 nm. Data is analyzed using Prism software (Graphpad, San Diego, CA) to calculate IC50 values.

The target of assay [3] is T1, C-Raf kinase (SEQ ID NO: 2) (Homo sapiens, UniProt P04049, Y340D/Y341D).
T1 construct: C-Raf residues 306-end; Y340D, Y341D with; GST (N); purchased Sigma
In words: Biochemical Assay for C-Raf (coupled pyruvate kinase/lactate dehydrogenase assay). To be noted: 1 mM ATP; read-out: CRAF (inhibition of biochemical activity, IC50).

Assay [4] has as its target T2, B-Raf kinase (SEQ ID NO: 1) (Homo sapiens, UniProt P15056).
T2 construct: GST (N); purchased Sigma
In words: Biochemical Assay for B-Raf (coupled pyruvate kinase/lactate dehydrogenase assay). To be noted: 1 mM ATP; read-out: BRAF (inhibition of biochemical activity, IC50).

The subject of assay [5] is HCT-116 cells. As to the kind of experiment: HCT-116 Cell Proliferation Assay. Type of assay: cell-based. To be noted: Table 2, read-out: Inhibition of cell proliferation in HCT-116 (IC50 class). Here is the method:
HCT-116 cells (catalog #CCL-247) are obtained from the American Type Culture Collect (ATCC, Manassas, VA). Briefly, cells are grown in McCoy's 5A supplemented with 10% characterized fetal bovine serum (Invitrogen, Carlsbad, CA) and 1% Penicillin/Streptomycin/L-Glutamine at 37° C., 5% CO2, and 95% humidity. Cells are expanded until reaching 70-95% confluency at which point they are subcultured or harvested for assay use. A serial dilution of test compound is dispensed into a 384-well black clear bottom plate in triplicate. 375 cells are added per well in 50 μL complete growth medium in the 384-well plate. Plates are incubated for 67 to 72 hours at 37° C., 5% CO2, and 95% humidity. At the end of the incubation, 40 μL of a […] solution of resazurin (Sigma, St. Louis, MO) in PBS is added to each well of the plate and plates are incubated for an additional 4 to 5 h at 37° C., 5% CO2, and 95% humidity. Plates are read on a Synergy2 or equivalent reader (Biotek, Winooski, VT) using an excitation of 540 nm and an emission of 600 nm. Data is analyzed using Prism software (Graphpad, San Diego, CA) to calculate IC50 values.

Assay [6] concerns Pa16c cells. In words: Pa16c Cell Proliferation Assay. Type of assay: cell-based. To be noted: Table 2, read-out: Inhibition of cell proliferation in Pa16c (IC50 class). As to the method: as §1, with “Pa16c” for “HPAF-II”, “cells” for “cells (catalog #CRL-1997)”, “Dr. Channing Der, University of North Carolina at Chapel Hill.” for “the American Type Culture Collect (ATCC, Manassas, VA).”, “Dulbecco's Modified Eagle Medium” for “Minimum Essential Media”, “67” for “115”, “72 h” for “120 hours”

Where [7] appears, read: Homo sapiens, MIA PaCa-2, MiaPaca-2 cells.
[8] abbreviates: Homo sapiens, HCT-116, HCT-116 cells.

Each structure is given as a SMILES string. Like-named read-outs stand apart in the source and are kept apart here. Where only a bound is given, the exact number is not on record here.

T2 sequence (P15056 416-766): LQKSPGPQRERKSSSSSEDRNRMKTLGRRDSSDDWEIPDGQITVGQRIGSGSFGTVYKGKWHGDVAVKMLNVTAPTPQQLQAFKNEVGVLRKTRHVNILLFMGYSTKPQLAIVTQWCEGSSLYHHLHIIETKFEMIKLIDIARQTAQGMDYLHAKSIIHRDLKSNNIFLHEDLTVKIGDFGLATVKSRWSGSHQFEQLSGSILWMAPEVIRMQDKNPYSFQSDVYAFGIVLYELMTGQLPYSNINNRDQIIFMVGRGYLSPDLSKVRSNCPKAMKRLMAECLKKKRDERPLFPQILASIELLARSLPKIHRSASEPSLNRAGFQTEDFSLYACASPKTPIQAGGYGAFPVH
T1 sequence (P04049 307-648 Y340D/Y341D): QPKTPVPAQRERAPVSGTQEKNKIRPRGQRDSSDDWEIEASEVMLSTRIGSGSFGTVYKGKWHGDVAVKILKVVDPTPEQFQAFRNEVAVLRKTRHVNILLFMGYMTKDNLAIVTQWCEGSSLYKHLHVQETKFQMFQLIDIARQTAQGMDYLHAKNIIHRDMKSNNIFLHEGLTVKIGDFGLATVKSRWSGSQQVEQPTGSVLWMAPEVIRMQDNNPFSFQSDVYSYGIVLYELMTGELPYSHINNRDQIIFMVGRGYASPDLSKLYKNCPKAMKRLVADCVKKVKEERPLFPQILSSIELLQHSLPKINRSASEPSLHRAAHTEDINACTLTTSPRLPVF

As for `Cc1ccc(NC(=O)c2cc(C(F)(F)F)cnn2)cc1-c1ccnc(-c2cnn(C)c2)c1` [Example 114], the IC50 is 100 to 500 nM in assay [1] (Homo sapiens, HPAF-II); 100 to 500 nM in assay [2] (setting [7]); below 100 nM in assay [3]; 100 to 500 nM in assay [4]; 100 to 500 nM in assay [5] (setting [8]); 100 to 500 nM in assay [6].

For `CNc1cc(-c2cc(-c3cc(NC(=O)c4cc(C(F)(F)F)cnn4)ccc3C)ccn2)ccn1` [Example 50], the IC50 in assay [1] (Homo sapiens, HPAF-II) was 100 to 500 nM; in assay [2] (setting [7]) it was below 100 nM; in assay [3], 100 to 500 nM; in assay [4], below 100 nM; in assay [5] (setting [8]) it was 100 to 500 nM; in assay [6], 100 to 500 nM.

Turning to `Cc1ccc(NC(=O)c2cc(C(F)(F)F)cnn2)cc1-c1ccnc(-c2cnn(C)n2)c1` [Example 139], the IC50 was 100 to 500 nM in assay [1] (Homo sapiens, HPAF-II); 100 to 500 nM in assay [2] (setting [7]); below 100 nM in assay [3]; 100 to 500 nM in assay [4]; 100 to 500 nM in assay [5] (setting [8]); 500 to 1000 nM in assay [6].

On to `Cc1cc(F)c(NC(=O)c2cc(C(F)(F)F)cnn2)cc1-c1ccnc(-c2ccnc(NC(=O)C3CC3)c2)c1` [Example 60], for which the IC50 is 1000 to 10000 nM in assay [1] (Homo sapiens, HPAF-II); 1000 to 10000 nM in assay [2] (setting [7]); below 100 nM in assay [3]; below 100 nM in assay [4]; 100 to 500 nM in assay [5] (setting [8]); 1000 to 10000 nM in assay [6].

In the case of `Cc1ccc(NC(=O)c2cc(C(F)(F)F)cnn2)cc1-c1ccnc(-c2ccsc2)c1` [Example 146], the IC50 in assay [1] (Homo sapiens, HPAF-II) is below 100 nM; in assay [2] (setting [7]), below 100 nM; in assay [3], 1000 to 10000 nM; in assay [4], 1000 to 10000 nM; in assay [5] (setting [8]), below 100 nM; in assay [6], below 100 nM.

For `Cc1ccc(NC(=O)c2cc(C(C)C)cnn2)cc1-c1cncc(-c2ccnc(NC(=O)C3CC3)c2)c1` [Example 55], the IC50 in assay [1] (Homo sapiens, HPAF-II) is 100 to 500 nM; in assay [2] (setting [7]), 500 to 1000 nM; in assay [3] it was below 100 nM; in assay [4], below 100 nM; in assay [5] (setting [8]) it was below 100 nM; in assay [6], 1000 to 10000 nM.

In the case of `Cc1cc(-c2cc(NC(=O)c3cc(C(F)(F)F)cnn3)ccc2C)cc(-c2ccnc(NC(=O)C3CC3)c2)n1` [Example 18], the IC50 in assay [1] (Homo sapiens, HPAF-II) is 100 to 500 nM; in assay [2] (setting [7]) it was 100 to 500 nM; in assay [3] it was below 100 nM; in assay [4] it was below 100 nM; in assay [5] (setting [8]), 100 to 500 nM; in assay [6], 100 to 500 nM.

Regarding `Cc1ccc(NC(=O)c2cc(C(F)(F)F)cnn2)cc1-c1cc(OCCO)nc(-c2cn[nH]c2)c1` [Example 116], the IC50 in assay [1] (Homo sapiens, HPAF-II) is below 100 nM; in assay [2] (setting [7]) it was below 100 nM; in assay [3] it was below 100 nM; in assay [4], below 100 nM; in assay [5] (setting [8]), below 100 nM; in assay [6] it was below 100 nM.

As for `Cc1ccc(NC(=O)c2cc(C3CC3)cnn2)cc1-c1ccnc(-c2cnn(C)n2)c1` [Example 141], the IC50 is 500 to 1000 nM in assay [1] (Homo sapiens, HPAF-II); 500 to 1000 nM in assay [2] (setting [7]); 100 to 500 nM in assay [3]; 100 to 500 nM in assay [4]; 500 to 1000 nM in assay [5] (setting [8]); 500 to 1000 nM in assay [6].

With `COCC(=O)Nc1cc(-c2cc(-c3cc(NC(=O)c4cc(C(F)(F)F)cnn4)ccc3C)ccn2)ccn1` [Example 48], the IC50 was 100 to 500 nM in assay [1] (Homo sapiens, HPAF-II); below 100 nM in assay [2] (setting [7]); below 100 nM in assay [3]; below 100 nM in assay [4]; below 100 nM in assay [5] (setting [8]); below 100 nM in assay [6].

On to `CC(=N)Nc1cc(-c2cc(-c3cc(NC(=O)c4cc(C(F)(F)F)cnn4)ccc3C)ccn2)ccn1` [Example 91], for which the IC50 in assay [1] (Homo sapiens, HPAF-II) was in the range of 1000 to 10000 nM; in assay [2] (setting [7]), 500 to 1000 nM; in assay [3], 100 to 500 nM; in assay [4], 100 to 500 nM; in assay [5] (setting [8]), 500 to 1000 nM; in assay [6], 1000 to 10000 nM.

Consider `COC(=O)Nc1cc(-c2ccnc(-c3cc(NC(=O)c4ccc(C(F)(F)F)nc4)ccc3C)n2)ccn1` [Example 6], for which the IC50 was 1000 to 10000 nM in assay [1] (Homo sapiens, HPAF-II); 1000 to 10000 nM in assay [2] (setting [7]); below 100 nM in assay [3]; below 100 nM in assay [4]; 500 to 1000 nM in assay [5] (setting [8]); 1000 to 10000 nM in assay [6].

Take `COC(=O)Nc1cc(-c2cncc(-c3cc(NC(=O)c4ccc(C(F)(F)F)nc4)ccc3C)c2)ncn1` [Example 76]: the IC50 in assay [1] was 1000 to 10000 nM; in assay [2] (MiaPaca-2 cells), 1000 to 10000 nM; in assay [3], below 100 nM; in assay [4] it was below 100 nM; in assay [5] (HCT-116 cells), 1000 to 10000 nM; in assay [6] it was 1000 to 10000 nM.

Consider `Cc1ccc(NC(=O)c2cc(C3CC3)cnn2)cc1-c1cc(-c2ccnc(NC(=O)C3CC3)c2)nc(NCCO)n1` [Example 15], for which the IC50 in assay [1] (Homo sapiens, HPAF-II) was 1000 to 10000 nM; in assay [2] (setting [7]), 100 to 500 nM; in assay [3], below 100 nM; in assay [4] it was below 100 nM; in assay [5] (setting [8]) it was below 100 nM; in assay [6], 1000 to 10000 nM.

Turning to `Cc1ccc(NC(=O)c2cncc(C(C)(C)C#N)c2)cc1-c1ccnc(-c2ccnc(NC(=O)C3CC3)c2)c1` [Example 105], the IC50 in assay [1] (Homo sapiens, HPAF-II) was 100 to 500 nM; in assay [2] (setting [7]), 100 to 500 nM; in assay [3], below 100 nM; in assay [4], below 100 nM; in assay [5] (setting [8]), below 100 nM; in assay [6] it was 1000 to 10000 nM.

As for `Cc1ccc(NC(=O)c2cc(C(F)(F)F)cnn2)cc1-c1cc(N[C@H](C)CO)nc(-c2c(C)n[nH]c2C)c1` [Example 122], the IC50 is 500 to 1000 nM in assay [1] (Homo sapiens, HPAF-II); 100 to 500 nM in assay [2] (setting [7]); below 100 nM in assay [3]; 100 to 500 nM in assay [4]; 100 to 500 nM in assay [5] (setting [8]); 100 to 500 nM in assay [6].
